From patent US4977139A, “Aqueous elcatonin solution composition” (Toyo Jozo Company, Ltd., priority 1988, dated 1990) come the findings set out here.

This data set is described as follows: Severe test against heat (storage at 45° C. for 3 months, residual rate by HPLC). In kind it is physicochemical. As for the experimental part: In preparation of 0.1 mM sodium acetate pH buffer of pH 5.5 in Example 2, four kinds of solutions were prepared so that concentration of sodium chloride was 3 mM, 10 mM, 154 mM and 500 mM. Elcatonin was dissolved therein so that elcatonin concentration was 7 μg/ml. Each of the compositions was filled in an ampule in the same manner as in Example 1 to prepare elcatonin injections having four kinds of ionic strength. The resulting elcatonin injections were stored at 45° C. for 3 months and residual rate was obtained under the same conditions as in Test Example 1.

For the substance “1-butyric acid-7-(L-2-aminobutyric acid)-26- o L-aspartic acid-27-L-valine-29-L-alanine-calcitonin (salmon) [Elcatonin]”, the “Residual rate (%)” value is, setting by setting: (NaCl 3 mM, ionic strength 0.003, 0.1 mM sodium acetate pH 5.5, elcatonin 7 μg/ml) 50%; (NaCl 10 mM, ionic strength 0.010, 0.1 mM sodium acetate pH 5.5, elcatonin 7 μg/ml) 79%; (NaCl 154 mM, ionic strength 0.154, 0.1 mM sodium acetate pH 5.5, elcatonin 7 μg/ml) 98%; (NaCl 500 mM, ionic strength 0.500, 0.1 mM sodium acetate pH 5.5, elcatonin 7 μg/ml) 97%.
